From patent US8772280B2, “N-aryl-2-(2-arylaminopyrimidin-4-yl)pyrrol-4-carboxamide derivatives as MPS1 kinase inhibitors” (Nerviano Medical Sciences S.R.L., priority 2009, dated 2014) come the findings set out here.

One may read the IC50 as the concentration at which inhibition is half-maximal. Higher therefore signals lower potency.

Sequence of MPS1 (P33981 2-857): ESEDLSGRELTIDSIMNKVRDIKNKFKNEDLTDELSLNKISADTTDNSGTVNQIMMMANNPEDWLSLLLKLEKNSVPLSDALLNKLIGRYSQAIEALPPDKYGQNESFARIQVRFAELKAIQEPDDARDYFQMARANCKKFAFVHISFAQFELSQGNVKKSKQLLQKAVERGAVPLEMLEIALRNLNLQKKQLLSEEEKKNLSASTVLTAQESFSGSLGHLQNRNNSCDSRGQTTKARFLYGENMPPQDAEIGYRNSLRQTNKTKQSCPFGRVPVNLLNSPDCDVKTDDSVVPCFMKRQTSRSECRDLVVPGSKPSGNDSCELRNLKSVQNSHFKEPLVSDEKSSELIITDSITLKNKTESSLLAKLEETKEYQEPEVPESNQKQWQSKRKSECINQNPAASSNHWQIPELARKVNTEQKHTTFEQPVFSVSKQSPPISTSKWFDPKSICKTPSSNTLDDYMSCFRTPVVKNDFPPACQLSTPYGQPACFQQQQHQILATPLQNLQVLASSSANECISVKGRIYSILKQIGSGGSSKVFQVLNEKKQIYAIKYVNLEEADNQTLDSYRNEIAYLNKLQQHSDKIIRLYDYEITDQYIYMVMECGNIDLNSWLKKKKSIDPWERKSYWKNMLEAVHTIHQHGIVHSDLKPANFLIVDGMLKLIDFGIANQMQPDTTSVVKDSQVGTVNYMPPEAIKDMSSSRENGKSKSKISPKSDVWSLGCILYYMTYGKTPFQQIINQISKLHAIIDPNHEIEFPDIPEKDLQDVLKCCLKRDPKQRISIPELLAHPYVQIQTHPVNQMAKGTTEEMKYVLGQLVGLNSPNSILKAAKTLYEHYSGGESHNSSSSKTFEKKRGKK

The target in this test is MPS1 (Homo sapiens, UniProt P33981). Kind of test: biochemical. As to the method:
Amplification was performed using the forward oligonucleotide:
The inhibitory activity of putative kinase inhibitors and the potency of selected compounds were determined using a trans-phosphorylation assay.
Three cycles of mixing are done immediately after the addition of the resin.
`CCc1cccc(CC)c1NC(=O)c1cc(-c2ccnc(Nc3ccc(N(C)CCCN(C)C)cc3OC)n2)n(C)c1` [Compound 32, 5-(2-{4-[(3-Dimethylamino-propyl)-methyl-amino]-2-methoxy-phenylamino}-pyrimidin-4-yl)-1-methyl-1H-pyrrole-3-carboxylic acid (2,6-diethyl-phenyl)-amide]: the IC50 amounted to 110 nM. `CCc1cccc(CC)c1NC(=O)c1cc(-c2nc(Nc3ccc(C(N)=O)cc3C)ncc2Cl)n(C)c1Cl` [Compound 21, 5-[2-(4-Carbamoyl-2-methyl-phenylamino)-5-chloro-pyrimidin-4-yl]-2-chloro-1-methyl-1H-pyrrole-3-carboxylic acid (2,6-diethyl-phenyl)-amide] gave an IC50 of 22 nM. The compound `COc1cc(N2CCN(C)CC2)ccc1Nc1nccc(-c2cc(C(=O)Nc3c(C)cccc3Cl)cn2C)n1` [Compound 37, 5-{2-[2-Methoxy-4-(4-methyl-piperazin-1-yl)-phenylamino]-pyrimidin-4-yl}-1-methyl-1H-pyrrole-3-carboxylic acid (2-chloro-6-methyl-phenyl)-amide] registered an IC50 of 84 nM. On to `CCc1cccc(CC)c1NC(=O)c1cc(-c2ccnc(Nc3ccc(C(=O)N(C)C)cc3C)n2)n(C)c1` [Compound 14, 5-[2-(4-Dimethylcarbamoyl-2-methyl-phenylamino)-pyrimidin-4-yl]-1-methyl-1H-pyrrole-3-carboxylic acid (2,6-diethyl-phenyl)-amide], for which the IC50 is 41 nM.

Turning to `CCc1cccc(CC)c1NC(=O)c1cc(-c2nc(Nc3ccc(C(=O)N4CCC(N(C)C)CC4)cc3C)ncc2C)n(C)c1` [Compound 31, 5-{2-[4-(4-Dimethylamino-piperidine-1-carbonyl)-2-methyl-phenylamino]-5-methyl-pyrimidin-4-yl}-1-methyl-1H-pyrrole-3-carboxylic acid (2,6-diethyl-phenyl)-amide], the IC50 came out at 67 nM.
